System: tyrosinase (Sigma T-7755)
Assay: tyrosinase assay: conversion of L-DOPA to DOPAquinone, monitored at 475 nm
Assay type: biochemical
Conditions: for INHIBITION OF ENZYME: comparison standard, 1% solution (solids present 1.0); for Inhibition of tyrosinase enzyme step 2, 0.001% conc: ingredient at 0.001% conc; for Inhibition of tyrosinase enzyme step 2, 0.01% conc: ingredient at 0.01% conc; for Inhibition of tyrosinase enzyme step 2, 0.1% conc: ingredient at 0.1% conc; for Inhibition of tyrosinase enzyme step 2, 1% conc: ingredient at 1% conc
Protocol: The tyrosinase assay was based on methods previously published (Mason, H. S., (1948) J. Biol. Chem. 172, 83-86; Dawson, C. R. and Magee, R. J. (1955) Methods in Enzymology II 817-827 (Editors-in-chief S. P. Colowick and N. O. Caplan); Lerner, A. B. (1955) ibid 827-831; Bergmeyer, U. H. (1983) Methods of Enzymatic Analysis (Published by Verlag Chemie, Weinheim)). The protocol was as follows, scaled for the approximately twenty sample determinations:
(a) A buffer solution of pH 6.5 was prepared by dissolving 1.4 9 disodium monohydrogen phosphate (Na2HPO4) and 1.4 g monopotassium dihydrogen phosphate (KH2PO4) in pure water to make 200 mL.
(b) An enzyme solution of either 1.0 mg or 3.0 mg tyrosinase (Sigma T-7755) was prepared in 30 mL buffer and stored at 2° C. until use.
(c) A substrate solution was prepared by dissolving 0.10 g L-DOPA (L-3,4-dihydroxyphenyl-alanine, Sigma D-9661) in 100 ML buffer.
(d) The unfettered enzyme reaction rate was measured by mixing together 0.5 mL buffer solution and 0.5 mL substrate solution in twin acrylate mini-cuvettes (path 2.0 mm), and after observing the stability of the mixture, mixing in 0.25 mL enzyme solution to one cuvette. The formation of red DOPAquinone was monitored spectrophotometrically at 475 nm, at times 0, 1, 2 and 3 minutes.
(e) The effect of added substances on the enzyme reaction rate was measured by mixing together 0.5 mL buffer solution, 0.5 mL substrate solution and 0.25 mL test substance (at 1% strength in 50:50 butyleneglycol:water) in twin acrylate mini-cuvette. The reaction was tracked spectrophotometrically at 475 nm, reading at 0, 1, 2 and 3 minutes.
(f) The effect of test substances on reaction rate was expressed as inhibition (I) where I=100−[100 (trt absorbance change, 3 min)/100(control absorbance change, 3 min)].
Concentrations of substrate, enzyme or test substance can be varied as appropriate.
(§1) This assay duplicates rate-controlling steps in the human metabolic pathway to skin pigmentation. Pure hydroquinone in 1% solution was employed as a comparison standard.
as §1

Compound: Oc1ccc(O)cc1 [Hydroquinone, 1,4-dihydroxybenzene]
- Enzymes reaction rate reduction @ 5 μg enzyme (5 μg enzyme, test substance at 1% strength): 65%
- Enzymes reaction rate reduction @ 15 μg enzyme (15 μg enzyme, test substance at 1% strength): 55%
- INHIBITION OF ENZYME (Table 3): 58-62%
- Inhibition of tyrosinase enzyme step 2, 0.001% conc (Table 4): <10%
- Inhibition of tyrosinase enzyme step 2, 0.01% conc (Table 4): <10%
- Inhibition of tyrosinase enzyme step 2, 0.1% conc (Table 4): 31%
- Inhibition of tyrosinase enzyme step 2, 1% conc (Table 4): 60%
- INHIBITION OF ENZYME (Table 5): 38-62%
- Inhibition of tyrosinase enzyme step 2, 0.001% conc (Table 6): <10%
- Inhibition of tyrosinase enzyme step 2, 0.01% conc (Table 6): <10%
- Inhibition of tyrosinase enzyme step 2, 0.1% conc (Table 6): 31%
- Inhibition of tyrosinase enzyme step 2, 1% conc (Table 6): 60%

Compound: CC(O)CCO (stereo not drawn) [butanediol, 1,3-butanediol]
- effect on tyrosinase in standard assays (in words) (constituents of TYROSTAT compositions): slightly inhibitory

Compound: O=C1O[C@H]([C@@H](O)CO)C(O)=C1O [Ascorbic acid, L-ascorbic acid]
- Inhibition of tyrosinase enzyme step 2, 0.001% conc (Table 4): 23%
- Inhibition of tyrosinase enzyme step 2, 0.01% conc (Table 4): 82%
- Inhibition of tyrosinase enzyme step 2, 0.1% conc (Table 4): 100%
- Inhibition of tyrosinase enzyme step 2, 1% conc (Table 4): 100%
- Inhibition of tyrosinase enzyme step 2, 0.001% conc (Table 6): 23%
- Inhibition of tyrosinase enzyme step 2, 0.01% conc (Table 6): 82%
- Inhibition of tyrosinase enzyme step 2, 0.1% conc (Table 6): 100%
- Inhibition of tyrosinase enzyme step 2, 1% conc (Table 6): 100%

— patent US6521267B1, “Tyrosinase inhibitors from plants” (Fytokem Prtoducts, Inc., priority 1998, dated 2003)
